System: 496974-208-R-J2-PDC complex spheroids, growth % test/control
Assay: Anticancer human tumor 496974-208-R-J2-PDC patient-derived pancreatic carcinoma cell line growth inhibition [CLK]
Conditions: for IC50: curve of first compound; for viability, T/C: stronger effect = lower value
Source text: A high-throughput screen of multi-cell type tumor spheroids was designed to identify active combinations of […] and targeted small molecules. Complex spheroids include a stromal component modeled by human endothelial cells (HUVEC) and fibroblasts modeled by human mesenchymal stem cells (MSCs). The concentration ranges selected for each drug and investigational agent were based upon clinically achievable concentrations if the clinical Cmax of the agent was known.
Compounds. The drugs and investigational agents: cirtuvivint (SM08502; NSC835563), CC-671 (NSC850746), vemurafenib (NSC761431), tapotoclax (NSC804041), sotorasib (NSC818433), adagrasib (NSC831453), MRTX-1133 (NSC836407), BAY2416964 (NSC825713), copanlisib (NSC816437), inavolisib (NSC800729), abemaciclib (NSC768073), osimertinib (NSC779217), entinostat (NSC756642), eltanexor (KPT-8602, NSC794443), venetoclax (NSC766270), ceralasertib (NSC777638), bortezomib (NSC756655), olaparib (NSC753686), talazoparib (NSC767125), alisertib (NSC759677), peposertib (NSC802822), gemcitabine (NSC613327), 5-fluorouracil (NSC19893), SN-38 (NSC673596), oxaliplatin (NSC266046), paclitaxel (NSC125973), and doxorubicin (NSC123127), were obtained from the National Cancer Institute (NCI) Developmental Therapeutics Program Chemical Repository. The FDA-approved anticancer drug set is available from the Developmental Therapeutics Program at https://dtp.cancer.gov/organization/dscb/obtaining/available plates.htm. […] The stock solutions were prepared in dimethyl sulfoxide (DMSO, Sigma-Aldrich, St. Louis, MO, cat. D2650), except for the platinum complexes which were prepared in saline (Quality Biological, Gaithersburg, MD, cat. 114-055-101), at 800-fold the tested concentration and stored at -70 degrees C prior to their use. All drugs and investigational agents were tested over a range starting from a high concentration at or near the clinical Cmax and decreasing in half-log increments. If the clinical Cmax for an agent had not been determined, the highest concentration tested was 10 microM.
Cell Culture. All cells were maintained in an incubator at 37 degrees C and 5% CO2 with 95% humidity. The PDC lines were cultured according to standard operating procedures established by the NCI PDMR. Briefly, all PDCs were thawed and cultured in Matrigel-coated flasks prepared with a working solution of 1X Ham's F-12 nutrient mix, without supplementation (Invitrogen, Waltham, MA, cat. 11765054), 100 U/mL penicillin-streptomycin (Invitrogen, cat. 15140122), and 2.5% Matrigel (Corning Inc., Corning, NY, cat. 354248) for the first three passages. The 947758-054-R-J2-PDC line was cultured in 6B/Colon 1A media, which includes advanced DMEM/F-12 (Thermo Fisher Scientific, cat. 12634028), 10 mM HEPES (Thermo Fisher Scientific, cat. 15630080), 1X GlutaMAX supplement (Thermo Fisher Scientific, cat. 35050061), 0.1 mg/mL primocin (InvivoGen, cat. ant-pm-2), 10% defined fetal bovine serum, heat inactivated (HyClone Laboratories Inc., cat. SH30070.03HI), 1.25 mM N-Acetyl-L-cysteine (Sigma-Aldrich, cat. A9165), 10 mM nicotinamide (Sigma-Aldrich, cat. N0636), 1X B-27 supplement (Thermo Fisher Scientific, cat. 17504044), 1X N-2 supplement (Thermo Fisher Scientific, cat. 17502048), and 10 microM Y-27632 dihydrochloride (Tocris Bioscience, cat. 1254). The 876862-298-R-J1-PDC was cultured in 6E media, which includes all 6B/Colon 1A media components plus 50% L-WRN conditioned media (ATCC, cat. CRL-3276), 50 ng/mL recombinant human EGF recombinant protein (hEGF; Thermo Fisher Scientific, cat. PHG0311), 10 ng/mL recombinant human fibroblast growth factor 10 (hGFG-10; PeproTech, cat. 100-26), 1 ng/mL recombinant human fibroblast growth factor 2 (hFGF-2; PeproTech, cat. 100-18B), and 1 µM prostaglandin E2 (PGE2; Tocris, cat. 2296). The 227483-062-R1-J1-PDC line was cultured in Panc media, containing all 6E components except hFGF-2, with the addition of 500 nM SB-431542 (Selleckchem, cat. S1067) and 10 nM gastrin (Tocris, cat. 3006). […]

[1] = second compound 0.0316 µM, first compound 0.0316 µM
[2] = second compound 0.0316 µM, first compound 0.1 µM
[3] = second compound 0.0316 µM, first compound 0.316 µM
[4] = second compound 0.0316 µM, first compound 1 µM
[5] = second compound 0.0316 µM, first compound 3.16 µM
[6] = second compound 0.0316 µM, first compound 10 µM
[7] = second compound 0.1 µM, first compound 0.0316 µM
[8] = second compound 0.1 µM, first compound 0.1 µM
[9] = second compound 0.1 µM, first compound 0.316 µM
[10] = second compound 0.1 µM, first compound 1 µM
[11] = second compound 0.1 µM, first compound 3.16 µM
[12] = second compound 0.1 µM, first compound 10 µM
[13] = second compound 0.316 µM, first compound 0.0316 µM
[14] = second compound 0.316 µM, first compound 0.1 µM
[15] = second compound 0.316 µM, first compound 0.316 µM
[16] = second compound 0.316 µM, first compound 1 µM
[17] = second compound 0.316 µM, first compound 3.16 µM
[18] = second compound 0.316 µM, first compound 10 µM
[19] = second compound 1 µM, first compound 0.0316 µM
[20] = second compound 1 µM, first compound 0.1 µM
[21] = second compound 1 µM, first compound 0.316 µM
[22] = second compound 1 µM, first compound 1 µM
[23] = second compound 1 µM, first compound 3.16 µM
[24] = second compound 1 µM, first compound 10 µM
[25] = second compound 3.16 µM, first compound 0.0316 µM
[26] = second compound 3.16 µM, first compound 0.1 µM
[27] = second compound 3.16 µM, first compound 0.316 µM
[28] = second compound 3.16 µM, first compound 1 µM
[29] = second compound 3.16 µM, first compound 3.16 µM
[30] = second compound 3.16 µM, first compound 10 µM
[31] = second compound 10 µM, first compound 0.0316 µM
[32] = second compound 10 µM, first compound 0.1 µM
[33] = second compound 10 µM, first compound 0.316 µM
[34] = second compound 10 µM, first compound 1 µM
[35] = second compound 10 µM, first compound 3.16 µM
[36] = second compound 10 µM, first compound 10 µM
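Note: spheroids exposed to the drugs for 7 days before readout.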
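Throughout, for viability, T/C: 100% = DMSO vehicle control wells.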

C#Cc1c(F)ccc2cc(O)cc(-c3ncc4c(N5CC6CCC(C5)N6)nc(OCC56CCCN5CC(F)C6)nc4c3F)c12 (stereo unspecified) + CN1CCN(c2cc(C(=O)Nc3cc4cc(-c5cnn(C)c5)ccc4cn3)ccn2)CC1
IC50 (second compound 0.0316 µM): 49.4 nM
IC50 (second compound 0.1 µM): < 31.6 nM
IC50 (second compound 0.316 µM): < 31.6 nM
IC50 (second compound 1 µM): < 31.6 nM
IC50 (second compound 3.16 µM): < 31.6 nM
IC50 (second compound 10 µM): < 31.6 nM
viability, T/C [1]: 54.9%
viability, T/C [2]: 41.2%
viability, T/C [3]: 39.9%
viability, T/C [4]: 37.2%
viability, T/C [5]: 33.5%
viability, T/C [6]: 35.1%
viability, T/C [7]: 37.7%
viability, T/C [8]: 34.7%
viability, T/C [9]: 30.2%
viability, T/C [10]: 25.8%
viability, T/C [11]: 25.2%
viability, T/C [12]: 22.8%
viability, T/C [13]: 6.34%
viability, T/C [14]: 7.18%
viability, T/C [15]: 5.55%
viability, T/C [16]: 5.05%
viability, T/C [17]: 4.85%
viability, T/C [18]: 4.28%
viability, T/C [19]: 0.24%
viability, T/C [20]: 1.36%
viability, T/C [21]: 0.31%
viability, T/C [22]: 0.34%
viability, T/C [23]: 0.22%
viability, T/C [24]: 0.33%
viability, T/C [25]: 0.26%
viability, T/C [26]: 1.39%
viability, T/C [27]: 0.4%
viability, T/C [28]: 0.27%
viability, T/C [29]: 0.23%
viability, T/C [30]: 1.06%
viability, T/C [31]: 0.28%
viability, T/C [32]: 0.2%
viability, T/C [33]: 0.22%
viability, T/C [34]: 0.2%
viability, T/C [35]: 0.21%
viability, T/C [36]: 1.87%

C=C(F)C(=O)N1CCN(c2nc(OCC3CCCN3C)nc3c2CCN(c2cccc4cccc(Cl)c24)C3)CC1CC#N (stereo unspecified) + CN1CCN(c2cc(C(=O)Nc3cc4cc(-c5cnn(C)c5)ccc4cn3)ccn2)CC1
IC50 (second compound 0.0316 µM): 5320 nM
IC50 (second compound 0.1 µM): 4440 nM
IC50 (second compound 0.316 µM): < 31.6 nM
IC50 (second compound 1 µM): < 31.6 nM
IC50 (second compound 3.16 µM): < 31.6 nM
IC50 (second compound 10 µM): < 31.6 nM
viability, T/C [1]: 107%
viability, T/C [2]: 106%
viability, T/C [3]: 89.9%
viability, T/C [4]: 117%
viability, T/C [5]: 88.8%
viability, T/C [6]: 3.02%
viability, T/C [7]: 86.1%
viability, T/C [8]: 88.8%
viability, T/C [9]: 75.8%
viability, T/C [10]: 86.6%
viability, T/C [11]: 70.8%
viability, T/C [12]: 0.72%
viability, T/C [13]: 7.07%
viability, T/C [14]: 8.92%
viability, T/C [15]: 8.59%
viability, T/C [16]: 7.85%
viability, T/C [17]: 6.67%
viability, T/C [18]: 1.1%
viability, T/C [19]: 0.58%
viability, T/C [20]: 0.48%
viability, T/C [21]: 1.51%
viability, T/C [22]: 0.33%
viability, T/C [23]: 1.52%
viability, T/C [24]: 2.06%
viability, T/C [25]: 0.33%
viability, T/C [26]: 0.52%
viability, T/C [27]: 1.57%
viability, T/C [28]: 0.45%
viability, T/C [29]: 0.2%
viability, T/C [30]: 1.09%
viability, T/C [31]: 0.35%
viability, T/C [32]: 0.35%
viability, T/C [33]: 0.31%
viability, T/C [34]: 0.32%
viability, T/C [35]: 0.74%
viability, T/C [36]: 0.22%

CC(CO)NC(=O)c1cc(-c2ccc(Cl)cc2)nn(-c2cnn(C)c2)c1=O (stereo unspecified) + CN1CCN(c2cc(C(=O)Nc3cc4cc(-c5cnn(C)c5)ccc4cn3)ccn2)CC1
IC50 (second compound 0.0316 µM): > 10000 nM
IC50 (second compound 0.1 µM): > 10000 nM
IC50 (second compound 0.316 µM): < 31.6 nM
IC50 (second compound 1 µM): < 31.6 nM
IC50 (second compound 3.16 µM): < 31.6 nM
IC50 (second compound 10 µM): < 31.6 nM
viability, T/C [1]: 100%
viability, T/C [2]: 103%
viability, T/C [3]: 104%
viability, T/C [4]: 97.6%
viability, T/C [5]: 79.8%
viability, T/C [6]: 53.3%
viability, T/C [7]: 80.9%
viability, T/C [8]: 90.1%
viability, T/C [9]: 73.7%
viability, T/C [10]: 80%
viability, T/C [11]: 71.3%
viability, T/C [12]: 55%
viability, T/C [13]: 6.47%
viability, T/C [14]: 7.73%
viability, T/C [15]: 7.09%
viability, T/C [16]: 6.92%
viability, T/C [17]: 7.31%
viability, T/C [18]: 10.6%
viability, T/C [19]: 0.48%
viability, T/C [20]: 0.63%
viability, T/C [21]: 0.82%
viability, T/C [22]: 0.41%
viability, T/C [23]: 0.57%
viability, T/C [24]: 3.08%
viability, T/C [25]: 0.49%
viability, T/C [26]: 0.49%
viability, T/C [27]: 0.55%
viability, T/C [28]: 0.4%
viability, T/C [29]: 1%
viability, T/C [30]: 0.92%
viability, T/C [31]: 0.3%
viability, T/C [32]: 0.27%
viability, T/C [33]: 1.54%
viability, T/C [34]: 0.29%
viability, T/C [35]: 0.35%
viability, T/C [36]: 1.18%
